Results taken from ChEMBL document CHEMBL4385613, “Discovery of Conformational Control Inhibitors Switching off the Activated c-KIT and Targeting a Broad Range of Clinically Relevant c-KIT Mutants” (J Med Chem, 2019).
Activity calls are given as the source filed them. No cut-off for these calls is given here.

Tests used:
[1] = Antiproliferative activity against human GIST48B cells assessed as reduction in cell viability by methylene blue staining based assay; format: functional
[2] = target: Mast/stem cell growth factor receptor Kit (Homo sapiens, UniProt P10721, T670I); assay: Inhibition of human c-KIT ATP binding domain exon 14 T670I single mutant using poly (Glu,Tyr) 4:1 as substrate in presence of 33P-gamma-ATP by hotspot kinase assay
[3] = target: Mast/stem cell growth factor receptor Kit (Homo sapiens, UniProt P10721, N822K/V560G); assay: Inhibition of human c-KIT A loop exon 11/17 V560G/N822K double mutant using poly (Glu,Tyr) 4:1 as substrate in presence of 33P-gamma-ATP by hotspot kinase assay
[4] = target: Mast/stem cell growth factor receptor Kit (Homo sapiens, UniProt P10721); assay: Inhibition of ATP-activated recombinant human N-terminal 6x-His-tagged c-KIT (547 to 935 residues)/(694 to 753 residues deletion) expressed in baculovirus infected Sf9 insect cells assessed as decrease in poly (Glu,Tyr) 4:1 phosphorylation incubated for 30 mins followed by ATP addition and measured after 30 mins by Kinase Glo based luminescence assay
[5] = tested on: Mast/stem cell growth factor receptor Kit (Homo sapiens), P10721 [Y823D]; conditions: at 10 nM
Description: Inhibition of human c-KIT A loop exon 17 Y823D single mutant at 10 nM using poly (Glu,Tyr) 4:1 as substrate in presence of 33P-gamma-ATP by hotspot kinase assay relative to control

[6] = tested on: Mast/stem cell growth factor receptor Kit (Homo sapiens), P10721 [Y823D]; conditions: at 100 nM
Description: Inhibition of human c-KIT A loop exon 17 Y823D single mutant at 100 nM using poly (Glu,Tyr) 4:1 as substrate in presence of 33P-gamma-ATP by hotspot kinase assay relative to control

[7] = tested on: Mast/stem cell growth factor receptor Kit (Homo sapiens), P10721 [K642E]; assay: Inhibition of human c-KIT ATP binding domain exon 13 K642E single mutant at 100 nM using poly (Glu,Tyr) 4:1 as substrate in presence of 33P-gamma-ATP by hotspot kinase assay relative to control
[8] = Antiproliferative activity against human Detroit 551 assessed as reduction in cell viability after 72 hrs by MTS assay; format: cell-based; conditions: Detroit 551 cells
GIST882 = assay: Antiproliferative activity against human GIST882 cells harboring c-KIT exon 13 homozygous primary K642E mutant assessed as reduction in cell viability by methylene blue staining based assay; format: functional
[9] = tested on: Mast/stem cell growth factor receptor Kit (Homo sapiens), P10721 [V654A]; assay: Inhibition of human c-KIT ATP binding domain exon 13 V654A single mutant at 10 nM using poly (Glu,Tyr) 4:1 as substrate in presence of 33P-gamma-ATP by hotspot kinase assay relative to control
GISTT1 = assay: Antiproliferative activity against human GISTT1 cells harboring heterozygous V560-Y578 deletion mutant assessed as reduction in cell viability by MTS assay; format: functional
[10] = tested on: Mast/stem cell growth factor receptor Kit (Homo sapiens), P10721 [V560G,D816V]; assay: Inhibition of human c-KIT A loop exon 11/17 V560G/D816V double mutant at 100 nM using poly (Glu,Tyr) 4:1 as substrate in presence of 33P-gamma-ATP by hotspot kinase assay relative to control
[11] = target: Mast/stem cell growth factor receptor Kit (Homo sapiens, UniProt P10721, K642E); assay: Inhibition of human c-KIT ATP binding domain exon 13 K642E single mutant using poly (Glu,Tyr) 4:1 as substrate in presence of 33P-gamma-ATP by hotspot kinase assay
[12] = target: Mast/stem cell growth factor receptor Kit (Homo sapiens, UniProt P10721, Y823D); assay: Inhibition of human c-KIT A loop exon 17 Y823D single mutant using poly (Glu,Tyr) 4:1 as substrate in presence of 33P-gamma-ATP by hotspot kinase assay
[13] = target: Mast/stem cell growth factor receptor Kit (Homo sapiens, UniProt P10721, D820E); assay: Inhibition of human c-KIT A loop exon 17 D820E single mutant using poly (Glu,Tyr) 4:1 as substrate in presence of 33P-gamma-ATP by hotspot kinase assay
Mus musculus = assay: Decrease in c-KIT phosphorylation in NOD-SCID mouse xenografted with human GIST430 cells harboring c-KIT exon 11 primary in-frame V560-L576 deletion mutant and exon 13 heterozygous secondary missense V654A mutant at 80 mg/kg, po measured after 8 hrs by immunoblotting analysis relative to control; format: functional
[14] = tested on: Mast/stem cell growth factor receptor Kit (Homo sapiens), P10721 [V559D,V654A]; assay: Inhibition of human c-KIT […] V559D/V654A double mutant at 10 nM using poly (Glu,Tyr) 4:1 as substrate in presence of 33P-gamma-ATP by hotspot kinase assay relative to control
[15] = tested on: Mast/stem cell growth factor receptor Kit (Homo sapiens), P10721 [UNDEFINED MUTATION]; assay: Inhibition of c-KIT V560-L576 deletion/V654A double mutant phosphorylation in human GIST430 cells assessed as decrease in phosphorylation of AKT at 10 to 100 nM measured after 24 to 72 hrs by Western blot analysis; format: cell-based
[16] = target: Mast/stem cell growth factor receptor Kit (Homo sapiens, UniProt P10721, D816H); assay: Inhibition of human c-KIT A loop exon 17 D816H single mutant using poly (Glu,Tyr) 4:1 as substrate in presence of 33P-gamma-ATP by hotspot kinase assay
[17] = tested on: Mast/stem cell growth factor receptor Kit (Homo sapiens), P10721 [V560G,N822K]; assay: Inhibition of human c-KIT A loop exon 11/17 V560G/N822K double mutant at 100 nM using poly (Glu,Tyr) 4:1 as substrate in presence of 33P-gamma-ATP by hotspot kinase assay relative to control
GIST430 = assay: Antitumor activity against human GIST430 cells harboring c-KIT exon 11 primary in-frame V560-L576 deletion mutant and exon 13 heterozygous secondary missense V654A mutant xenografted in NOD-SCID mouse assessed as tumor growth inhibition at 25 mg/kg, po administered for 2 weeks with 2 days rest after day 5 and measured thrice per week up to 21 days during compound dosing; format: functional, organism-based
[18] = target: Mast/stem cell growth factor receptor Kit (Homo sapiens, UniProt P10721, V559D/V654A); assay: Inhibition of human c-KIT […] V559D/V654A double mutant using poly (Glu,Tyr) 4:1 as substrate in presence of 33P-gamma-ATP by hotspot kinase assay
[19] = tested on: Mast/stem cell growth factor receptor Kit (Homo sapiens), P10721 [V559D,V654A]; assay: Inhibition of human c-KIT […] V559D/V654A double mutant at 100 nM using poly (Glu,Tyr) 4:1 as substrate in presence of 33P-gamma-ATP by hotspot kinase assay relative to control
[20] = Antiproliferative activity against human GIST62 cells assessed as reduction in cell viability by methylene blue staining based assay; format: functional
[21] = tested on: Mast/stem cell growth factor receptor Kit (Homo sapiens), P10721 [UNDEFINED MUTATION]; assay: Inhibition of c-KIT V560-L576 deletion/V654A double mutant phosphorylation in human GIST430 cells at 10 to 100 nM measured after 24 to 72 hrs by Western blot analysis; format: cell-based
[22] = tested on: Mast/stem cell growth factor receptor Kit (Homo sapiens), P10721 [D816V]; conditions: at 100 nM
Sequence of Mast/stem cell growth factor receptor Kit (Homo sapiens), P10721 [D816V] (P10721 whole entry D816V): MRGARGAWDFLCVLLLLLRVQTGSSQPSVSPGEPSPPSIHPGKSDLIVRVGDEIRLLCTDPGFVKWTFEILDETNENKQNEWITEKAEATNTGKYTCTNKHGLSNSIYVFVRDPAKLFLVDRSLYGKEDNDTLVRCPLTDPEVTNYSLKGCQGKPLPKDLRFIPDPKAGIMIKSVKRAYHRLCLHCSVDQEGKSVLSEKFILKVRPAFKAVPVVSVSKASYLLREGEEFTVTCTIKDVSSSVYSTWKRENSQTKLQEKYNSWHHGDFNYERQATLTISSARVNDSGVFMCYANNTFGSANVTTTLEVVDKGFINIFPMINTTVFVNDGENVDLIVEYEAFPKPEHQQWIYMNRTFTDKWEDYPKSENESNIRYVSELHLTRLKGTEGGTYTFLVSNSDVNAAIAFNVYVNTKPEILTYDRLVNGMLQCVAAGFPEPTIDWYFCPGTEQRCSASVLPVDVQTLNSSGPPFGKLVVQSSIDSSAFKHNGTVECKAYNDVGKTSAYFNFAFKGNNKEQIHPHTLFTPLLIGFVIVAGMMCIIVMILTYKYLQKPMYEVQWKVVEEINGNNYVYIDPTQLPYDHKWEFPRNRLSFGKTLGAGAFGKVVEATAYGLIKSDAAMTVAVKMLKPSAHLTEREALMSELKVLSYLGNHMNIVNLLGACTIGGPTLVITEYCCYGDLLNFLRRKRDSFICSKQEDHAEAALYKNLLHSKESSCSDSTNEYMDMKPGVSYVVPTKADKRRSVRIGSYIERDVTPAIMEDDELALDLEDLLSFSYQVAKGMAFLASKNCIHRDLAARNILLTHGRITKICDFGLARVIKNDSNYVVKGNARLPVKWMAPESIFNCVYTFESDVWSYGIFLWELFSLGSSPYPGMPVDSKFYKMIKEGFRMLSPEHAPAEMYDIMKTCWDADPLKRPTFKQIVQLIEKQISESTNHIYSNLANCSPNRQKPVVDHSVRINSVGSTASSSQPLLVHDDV
Description: Inhibition of human c-KIT A loop exon 17 D816V single mutant at 100 nM using poly (Glu,Tyr) 4:1 as substrate in presence of 33P-gamma-ATP by hotspot kinase assay relative to control

Sequence of Mast/stem cell growth factor receptor Kit (Homo sapiens), P10721 [UNDEFINED MUTATION] (P10721 whole entry, looked up, stated change not applied): as the sequence (P10721 whole entry D816V) above, with V816D counted along it
Sequence of Mast/stem cell growth factor receptor Kit (Homo sapiens), P10721 [V559D,V654A] (P10721 whole entry V559D/V654A): as the sequence (P10721 whole entry D816V) above, with V559D, V654A, V816D counted along it
Sequence of Mast/stem cell growth factor receptor Kit (Homo sapiens), P10721 [Y823D] (P10721 whole entry Y823D, the tested form may be a part): as the sequence (P10721 whole entry D816V) above, with V816D, Y823D counted along it
Sequence of Mast/stem cell growth factor receptor Kit (Homo sapiens, UniProt P10721, V559D/V654A) (P10721 26-976 V559D/V654A limits assumed): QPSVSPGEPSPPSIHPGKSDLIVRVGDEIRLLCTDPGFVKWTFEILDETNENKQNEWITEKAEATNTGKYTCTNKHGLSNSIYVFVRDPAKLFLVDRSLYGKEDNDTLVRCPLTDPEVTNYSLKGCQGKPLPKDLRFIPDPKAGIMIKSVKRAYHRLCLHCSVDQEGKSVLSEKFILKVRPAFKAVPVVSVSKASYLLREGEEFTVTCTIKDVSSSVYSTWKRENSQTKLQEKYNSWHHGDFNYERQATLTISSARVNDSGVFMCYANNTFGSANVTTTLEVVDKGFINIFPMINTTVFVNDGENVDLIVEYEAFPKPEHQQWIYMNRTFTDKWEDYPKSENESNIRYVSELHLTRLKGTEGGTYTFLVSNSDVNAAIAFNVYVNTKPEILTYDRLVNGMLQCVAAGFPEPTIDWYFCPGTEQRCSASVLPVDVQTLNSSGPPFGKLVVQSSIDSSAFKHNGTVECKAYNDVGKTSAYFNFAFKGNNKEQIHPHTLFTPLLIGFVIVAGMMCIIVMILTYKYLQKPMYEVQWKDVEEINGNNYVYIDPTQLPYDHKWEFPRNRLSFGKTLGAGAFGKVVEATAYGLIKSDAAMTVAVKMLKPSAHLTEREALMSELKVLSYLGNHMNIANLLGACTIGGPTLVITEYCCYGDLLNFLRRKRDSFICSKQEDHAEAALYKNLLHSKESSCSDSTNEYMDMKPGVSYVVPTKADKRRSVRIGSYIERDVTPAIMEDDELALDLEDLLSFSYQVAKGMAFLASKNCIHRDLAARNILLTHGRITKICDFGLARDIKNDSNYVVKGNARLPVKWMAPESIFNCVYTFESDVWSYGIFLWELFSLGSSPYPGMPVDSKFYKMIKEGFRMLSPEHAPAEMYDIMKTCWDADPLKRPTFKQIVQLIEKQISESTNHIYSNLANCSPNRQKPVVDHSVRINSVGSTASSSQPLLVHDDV
Sequence of Mast/stem cell growth factor receptor Kit (Homo sapiens, UniProt P10721, D816H) (P10721 26-976 D816H limits assumed): as the sequence (P10721 26-976 V559D/V654A limits assumed) above, with D534V, A629V, D791H counted along it
Sequence of Mast/stem cell growth factor receptor Kit (Homo sapiens, UniProt P10721, T670I) (P10721 26-976 T670I limits assumed): as the sequence (P10721 26-976 V559D/V654A limits assumed) above, with D534V, A629V, T645I counted along it
Sequence of Mast/stem cell growth factor receptor Kit (Homo sapiens), P10721 [V560G,N822K] (P10721 whole entry V560G/N822K): as the sequence (P10721 whole entry D816V) above, with V560G, V816D, N822K counted along it
Sequence of Mast/stem cell growth factor receptor Kit (Homo sapiens, UniProt P10721, Y823D) (P10721 26-976 Y823D limits assumed): as the sequence (P10721 26-976 V559D/V654A limits assumed) above, with D534V, A629V, Y798D counted along it
Sequence of Mast/stem cell growth factor receptor Kit (Homo sapiens), P10721 [V654A] (P10721 whole entry V654A, the tested form may be a part): as the sequence (P10721 whole entry D816V) above, with V654A, V816D counted along it
Sequence of Mast/stem cell growth factor receptor Kit (Homo sapiens, UniProt P10721, N822K/V560G) (P10721 26-976 V560G/N822K limits assumed): as the sequence (P10721 26-976 V559D/V654A limits assumed) above, with D534V, V535G, A629V, N797K counted along it
Sequence of Mast/stem cell growth factor receptor Kit (Homo sapiens, UniProt P10721, K642E) (P10721 26-976 K642E limits assumed): as the sequence (P10721 26-976 V559D/V654A limits assumed) above, with D534V, K617E, A629V counted along it
Sequence of Mast/stem cell growth factor receptor Kit (Homo sapiens, UniProt P10721, D820E) (P10721 26-976 D820E limits assumed): as the sequence (P10721 26-976 V559D/V654A limits assumed) above, with D534V, A629V, D795E counted along it
Sequence of Mast/stem cell growth factor receptor Kit (Homo sapiens), P10721 [K642E] (P10721 whole entry K642E, the tested form may be a part): as the sequence (P10721 whole entry D816V) above, with K642E, V816D counted along it
Sequence of Mast/stem cell growth factor receptor Kit (Homo sapiens), P10721 [V560G,D816V] (P10721 whole entry V560G/D816V, the tested form may be a part): as the sequence (P10721 whole entry D816V) above, with V560G counted along it

IC50 [2]: 1.66 nM
IC50 [3]: 0.18 nM
IC50 [4]: 92 nM
inhibition [5]: 97%
inhibition [6]: 100%
inhibition [7]: 99%
inhibition [9]: 43%
inhibition [10]: 63%
IC50 [11]: 1.37 nM
IC50 [12]: 0.12 nM
IC50 [13]: 0.81 nM
inhibition [14]: 10%
inhibition [15]: Active
IC50 [16]: 0.67 nM
inhibition [17]: 99%
IC50 [18]: 102 nM
inhibition [19]: 43%
inhibition [21]: Active
inhibition [22]: 73%
Structure (SMILES): CCc1cc(NC(=O)Nc2ccc(-c3cnc(Nc4cc(N5CCN(CC)CC5)ncn4)s3)cc2)no1
GI50 [1]: > 100 nM
GI50 at 72 h [8]: > 10000 nM
GI50 (GIST882): 3 nM
GI50 (GISTT1): 2.2 nM
inhibition in vivo at 80 mg/kg (Mus musculus): 95.9%
TGI (GIST430): Active
GI50 [20]: > 100 nM
